Read-outs that look alike come from different tables or passages of the source.
Assays:
[1] = biological target: tubulin (colchicine site); assay: Inhibition of [3H]colchicine binding to tubulin; parameters: species or system bovine; conditions: for IC50: 5 μM [3H]colchicine, 1 μM tubulin; for Percent Colchicine Binding Inhibition (CBI), 1 μM: 1 μM compound; for Percent Colchicine Binding Inhibition (CBI), 5 μM / % CBI 5 μM, (30° C.) / % CBI 5 μM, 37° C.: 5 μM compound; for Percent Colchicine Binding Inhibition (CBI), 50 μM / % CBI 50 μM, (30° C.) / % CBI 50 μM, 37° C.: 50 μM compound; for % CBI 5 μM, (30° C.) / % CBI 50 μM, (30° C.): 30° C. (values in parentheses)
Protocol: Assays to determine whether 15mix-17mix inhibited binding of [^3H]colchicine to tubulin at both 30° C. and 37° C. were performed. This was accomplished using methods described previously. Kang, G.-J.; Getahun, Z.; Muzaffar, A.; Brossi, A.; Hamel, E. J. Biol. Chem. 1990, 265, 10255; Verdier-Pinard, P.; Lai, J.-Y.; Yoo, H.-D.; Yu, J.; Marquez, B.; Nagle, D. G.; Nambu, M.; White, J. D.; Falck, J. R.; Gerwick, W. H.; Day, B. W.; Hamel, E. Mol. Pharmacol. 1998, 53, 62. Briefly, 5 μM [^3H]colchicine (2.3 TBq/mmol), drug (1, 5, 10, 50, or 250 μM), or vehicle (DMSO, 5% v/v) were incubated at 30° C. for 15 minutes or at 37° C. for 10 minutes with 1 μM tubulin in the presence of 1 M monosodium glutamate, 0.1 M glucose-1-phosphate, 1 mM MgCl2, 1 mM GTP, and 0.5 mg/mL bovine serum albumin. The solutions were filtered through two stacks of DEAE-cellulose filters and the radioactivity in the filtrate was determined by scintillation spectrometry. Each series of determinations included positive controls of 1, 5, and/or 50 μM curacin A.

[2] = tested on: isolated bovine brain tubulin; assay: Inhibition of GTP/glutamate-induced tubulin polymerization (turbidimetric, 30° C.); type: biochemical; conditions: for IC50: read-out: 50% Tubulin Polymerization Inhibition Concentration (TPI) IC50, 30° C., 10 μM tubulin; for Percent Tubulin Polymerization Inhibition (TPI), 5 μM / % TPI 5 μM: 5 μM compound
[3] = tested on: MDA-MB231 cells; assay: Growth inhibition of breast carcinoma cells (MTS); type: cell-based, human
[4] = tested on: PC-3 cells; assay: Growth inhibition of prostate carcinoma cells (MTS); type: cell-based, human
[5] = tested on: 2008 cells; assay: Growth inhibition of ovarian carcinoma cells (MTS); type: cell-based, human
[6] = incubation at 30° C. for 15 minutes, read-out: 50% Colchicine Binding Inhibitory Concentration (CBI), 30° C.
[7] = incubation at 37° C. for 10 minutes, read-out: 50% Colchicine Binding Inhibitory Concentration (CBI), 37° C.
[8] = Homo sapiens, MDA-MB-231, 48 h, read-out: GI50 MDA-MB231 (48 h)
[9] = Homo sapiens, PC-3, 48 h, read-out: GI50 PC-3 (48 h)
[10] = Homo sapiens, Ovarian carcinoma cell, 48 h, read-out: GI50 2008 (48 h)
[11] = 96 h, Table II prints no unit, read-out: GI50 MDA 96 h
[12] = read-out: GI50 MDA 48 h, 48 h, Table II prints no unit
[13] = 96 h, Table II prints no unit, read-out: GI50 PC3 96 h
[14] = read-out: GI50 PC3 48 h, 48 h, Table II prints no unit
[15] = 96 h, Table II prints no unit, read-out: GI50 2008 96 h
[16] = read-out: GI50 2008 48 h, 48 h, Table II prints no unit
[17] = 96 h, read-out: GI50 MDA-MB231 (breast) 96 h
[18] = read-out: GI50 MDA-MB231 (breast) 48 h, 48 h
[19] = 96 h, read-out: GI50 PC3 (prostate) 96 h
[20] = read-out: GI50 PC3 (prostate) 48 h, 48 h
[21] = 96 h, read-out: GI50 2008 (ovarian) 96 h
[22] = read-out: GI50 2008 (ovarian) 48 h, 48 h

Percent Colchicine Binding Inhibition (CBI), 1 μM [1]	Percent Colchicine Binding Inhibition (CBI), 5 μM [1]	Percent Colchicine Binding Inhibition (CBI), 50 μM [1]	GI50 [3, 11]	GI50 [3, 12]	GI50 [4, 13]	GI50 [4, 14]	GI50 [5, 15]	GI50 [5, 16]	SMILES	Percent Tubulin Polymerization Inhibition (TPI), 5 μM [2]	other results
–	–	–	–	–	–	–	–	–	COc1cc(C=CCCC=CC=C(C)CCC(O)c2ccco2)cc(OC)c1OC (centres unmarked) [Compound 17a, (4E,1E,10Z)-11-(3,4,5-Trimethoxyphenyl)-4-methyl-1-furan-2-ylundeca-4,6,10-trien-1-ol]	–	IC50 [1, 6]: 32 ± 4 µM; IC50 [1, 7]: 9 ± 6 µM; IC50 [2]: 0.9 µM; GI50 [3, 8]: 0.69 ± 0.1 µM; GI50 [4, 9]: 8 ± 4 µM; GI50 [5, 10]: 2.7 ± 1 µM
–	–	–	–	–	–	–	–	–	COc1ccccc1C(O)CCC(C)=CC=CCCC=Cc1cc(OC)c(OC)c(OC)c1 (centres unmarked) [Compound 17d, (4E,6E,10Z)-11-(3,4,5-Trimethoxyphenyl)-4-methyl-1-(2-methoxy-phenyl)-2-ylundeca-4,6,10-trien-1-ol]	–	IC50 [1, 6]: 9 ± 5 µM; IC50 [1, 7]: 9 ± 4 µM; IC50 [2]: 1.2 µM; GI50 [3, 8]: 0.34 ± 0.03 µM; GI50 [4, 9]: 0.62 ± 0.2 µM; GI50 [5, 10]: 0.33 ± 0.02 µM
–	–	–	–	–	–	–	–	–	COc1ccc(OC)c(C(O)CCC(C)=CC=CCCC=Cc2cc(OC)c(OC)c(OC)c2)c1 (centres unmarked) [Compound 17f, (4E,6E,10Z)-11-(3,4,5-Trimethoxyphenyl)-4-methyl-1-(2,5-dimethoxy-phenyl)-2-ylundeca-4,6,10-trien-1-ol]	–	IC50 [1, 6]: > 50 µM; IC50 [1, 7]: > 50 µM; IC50 [2]: > 50 µM; GI50 [3, 8]: 9.7 ± 1 µM; GI50 [4, 9]: > 50 µM; GI50 [5, 10]: 22 ± 5 µM
−4.6 ± 8.5%	−2.2 ± 8.2%	13.2 ± 12.7%	3.26 ± 6.13 µM	26.8 ± 0.9 µM	> 50 µM	> 50 µM	19.1 ± 3.1 µM	20.2 ± 2 µM	COc1ccc(/C=C\CC/C=C/C=C(\C)CCC(O)c2ccco2)c(OC)c1 (centres unmarked) [Compound 19AR1]	81.7%	–
−0.7 ± 7.5%	−2.7 ± 6.5%	−31.7 ± 7.8 %	7.18 ± 4.67 µM	24 ± 1.2 µM	37.3 ± 6.5 µM	> 50 µM	25.9 ± 2.1 µM	23.8 ± 1.1 µM	COc1ccc(/C=C\CC/C=C/C=C(\C)CCC(O)c2cccs2)c(OC)c1 (centres unmarked) [Compound 19AR2]	51.8%	–
0.7 ± 16.2%	−50.0 ± 12.7 %	−29.0 ± 9.2 %	6.43 ± 7.42 µM	42.1 ± 1.4 µM	49.1 ± 8.9 µM	> 50 µM	17.7 ± 2.7 µM	12.2 ± 2.7 µM	COc1ccc(/C=C\CC/C=C/C=C(\C)CCC(O)c2cc3ccccc3o2)c(OC)c1 (centres unmarked) [Compound 19AR3]	60.4%	–
1.4 ± 18.5%	−41.0 ± 17.8 %	−26.4 ± 14.7 %	18.6 ± 3 µM	> 50 µM	> 50 µM	> 50 µM	26.9 ± 3 µM	29.8 ± 1.4 µM	COc1ccc(/C=C\CC/C=C/C=C(\C)CCC(O)c2cc3ccccc3s2)c(OC)c1 (centres unmarked) [Compound 19AR4]	60.5%	–
−3.4 ± 3.2%	−17.4 ± 7.9 %	−26.1 ± 11.5 %	15.3 ± 9.8 µM	> 50 µM	> 50 µM	> 50 µM	24.2 ± 3.9 µM	30.8 ± 8.7 µM	COc1ccc(/C=C\CC/C=C/C=C(\C)CCC(O)c2ccccc2OC)c(OC)c1 (centres unmarked) [Compound 19AR5]	34.2%	–
1.7 ± 13.9%	−6.8 ± 13.1%	−22.8 ± 8.9 %	18.3 ± 13.6 µM	39.3 ± 11.3 µM	> 50 µM	> 50 µM	32.9 ± 3.7 µM	35.2 ± 2.4 µM	COc1ccc(/C=C\CC/C=C/C=C(\C)CCC(O)c2cc(OC)ccc2OC)c(OC)c1 (centres unmarked) [Compound 19AR6]	31.2%	–
–	30.3 ± 7.5 %	59.7 ± 1.6 %	0.79 ± 0.167 µM	0.288 ± 0.166 µM	7.73 ± 1.22 µM	7.99 ± 3.52 µM	2.53 ± 0.64 µM	2.72 ± 0.96 µM	COc1cc(/C=C\CC/C=C/C=C(\C)CCC(O)c2ccco2)cc(OC)c1OC (centres unmarked) [Compound 19CR1]	94.4%	–
–	30.2 ± 7.3 %	71.6 ± 2.8 %	1.28 ± 0.12 µM	0.083 ± 0.125 µM	1.22 ± 0.22 µM	0.875 ± 1.02 µM	0.235 ± 0.021 µM	0.38 ± 0.002 µM	COc1cc(/C=C\CC/C=C/C=C(\C)CCC(O)c2cccs2)cc(OC)c1OC (centres unmarked) [Compound 19CR2]	>100%	–
–	9.9 ± 3.0%	59.0 ± 7.5 %	0.214 ± 0.051 µM	0.151 ± 0.051 µM	1.02 ± 0.38 µM	0.366 ± 0.157 µM	0.279 ± 0.03 µM	0.311 ± 0.063 µM	COc1cc(/C=C\CC/C=C/C=C(\C)CCC(O)c2cc3ccccc3o2)cc(OC)c1OC (centres unmarked) [Compound 19CR3]	>100%	–
–	5.0 ± 7.4%	73.0 ± 2.4 %	0.221 ± 0.033 µM	0.243 ± 0.046 µM	0.634 ± 0.397 µM	0.933 ± 1.25 µM	0.268 ± 0.046 µM	0.314 ± 0.025 µM	COc1cc(/C=C\CC/C=C/C=C(\C)CCC(O)c2cc3ccccc3s2)cc(OC)c1OC (centres unmarked) [Compound 19CR4]	>100%	–
–	12.5 ± 8.1%	68.7 ± 1.1 %	0.204 ± 0.046 µM	0.086 ± 0.146 µM	1.12 ± 0.04 µM	0.596 ± 1.25 µM	0.199 ± 0.036 µM	0.204 ± 0.112 µM	COc1ccccc1C(O)CC/C(C)=C/C=C/CC/C=C\c1cc(OC)c(OC)c(OC)c1 (centres unmarked) [Compound 19CR5]	74.6%	–
–	–	–	–	–	–	–	–	–	C=CC[C@@H](CC[C@@]1(C)C[C@H]1[C@H]1C[C@@H]1CC/C=C\[C@@H]1CSC([C@@H]2C[C@@H]2C)=N1)OC [JR DCCA]	–	% CBI 5 μM, (30° C.) [1]: (9 ± 5) %; % CBI 5 μM, 37° C. [1]: −39 ± 7%; % CBI 50 μM, (30° C.) [1]: (−12 ± 9) %; % CBI 50 μM, 37° C. [1]: −62 ± 5%; % TPI 5 μM [2]: 0%; GI50 [3, 17]: > 50 µM; GI50 [3, 18]: > 50 µM; GI50 [4, 19]: > 50 µM; GI50 [4, 20]: > 50 µM; GI50 [5, 21]: > 50 µM; GI50 [5, 22]: > 50 µM
–	–	–	–	–	–	–	–	–	C=CC[C@@H](CC/C(C)=C/C=C/CC/C=C\[C@@H]1COC(C(C)(C)C)=N1)OC [JRC1]	–	% CBI 5 μM, (30° C.) [1]: (14 ± 5) %; % CBI 5 μM, 37° C. [1]: 0 ± 7%; % CBI 50 μM, (30° C.) [1]: (80 ± 1) %; % CBI 50 μM, 37° C. [1]: 87 ± 1%; % TPI 5 μM [2]: 0%; GI50 [3, 17]: 4.1 ± 1.1 µM; GI50 [3, 18]: 1.8 ± 0.3 µM; GI50 [4, 19]: 8.8 ± 0.8 µM; GI50 [4, 20]: 6.2 ± 1.3 µM; GI50 [5, 21]: 3.7 ± 1.5 µM; GI50 [5, 22]: 0.45 ± 0.5 µM
–	–	–	–	–	–	–	–	–	C=CC[C@@H](CC/C(C)=C/C=C/CC/C=C\c1coc(C(C)(C)C)n1)OC [JRC2]	–	% CBI 5 μM, (30° C.) [1]: (7 ± 5) %; % CBI 5 μM, 37° C. [1]: 0 ± 17%; % CBI 50 μM, (30° C.) [1]: (7 ± 6) %; % CBI 50 μM, 37° C. [1]: −52 ± 14%; % TPI 5 μM [2]: 51%; GI50 [3, 17]: > 50 µM; GI50 [3, 18]: 36 ± 22 µM; GI50 [4, 19]: > 50 µM; GI50 [4, 20]: > 50 µM; GI50 [5, 21]: > 50 µM; GI50 [5, 22]: > 50 µM
–	–	–	–	–	–	–	–	–	C=CC[C@@H](CC/C(C)=C/C=C/CC/C=C\[C@@H]1CSC(C(C)(C)C)=N1)OC [JRC3]	–	% CBI 5 μM, (30° C.) [1]: (35 ± 4) %; % CBI 5 μM, 37° C. [1]: −35 ± 15%; % CBI 50 μM, (30° C.) [1]: (63 ± 6) %; % CBI 50 μM, 37° C. [1]: 13 ± 12%; % TPI 5 μM [2]: 100%; GI50 [3, 17]: 0.27 ± 0.16 µM; GI50 [3, 18]: 0.2 ± 0.11 µM; GI50 [4, 19]: 0.061 ± 0.059 µM; GI50 [4, 20]: 0.13 ± 0.08 µM; GI50 [5, 21]: 0.18 ± 0.11 µM; GI50 [5, 22]: 0.22 ± 0.09 µM

Source: patent publication US6392055B1, “Synthesis and biological evaluation of analogs of the antimitotic marine natural product curacin A” (The University of Pittsburgh, priority 2000, dated 2002)
